The text below walks through data of ChEMBL document CHEMBL1201862, “PubChem BioAssay data set” (2004).

Among the test systems are HT-29; SR; SF-539; SF-295; UACC-62; HCT-15; KM12; BT-549; TK-10; OVCAR-3; NCI-H460; NCI-H226; 786-0; SNB-19; PC-3; SN12C; SK-MEL-5; LOX IMVI; CCRF-CEM.
Holding throughout (experiment): growth of human tumour cells (NCI), 48 h

Each structure is given as a SMILES string.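 48-hour exposure; five concentrations; linearly interpolated endpoints. GI50 is the concentration that inhibits growth by half.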 The source made the active and inactive calls. Cut-off read from the data, not from the text of the source: active = GI50 up to about 1.1 µM and inactive = higher. A value given as a limit tells only on which side of the number the result lay.

`NS(=O)(=O)c1nnc(NS(=O)(=O)C(F)(F)F)s1`: the GI50 was > 100 µM (inactive) in the experiment on HT-29; 46.7 µM (inactive) in the experiment with SR; > 100 µM (inactive) in the experiment on SF-539; > 100 µM (inactive) in the experiment on SF-295; > 100 µM (inactive) in the experiment on UACC-62; above 100 µM with HCT-15. For the same molecule, the GI50 in the experiment on KM12, in the experiment on BT-549, in the experiment on TK-10, in the experiment on OVCAR-3, in the experiment with NCI-H460 and in the experiment with NCI-H226 was > 100 µM (inactive) in each case. Also, the GI50 in the experiment on 786-0, with SNB-19 and in the experiment with PC-3 was > 100 µM (inactive) throughout.
On to `CN(C(=O)Cc1ccccc1)n1cnn(CC(=O)OC(C)(C)C)c1=S`, for which the GI50 in the experiment on SN12C, in the experiment with HT-29, in the experiment with SR, in the experiment on SF-539, with SF-295 and in the experiment with UACC-62 was > 10 µM (inactive) throughout. In addition, the GI50 in the experiment with HCT-15 was above 10 µM; in the experiment on KM12 it was > 10 µM (inactive); in the experiment with BT-549, > 10 µM (inactive); in the experiment on SK-MEL-5, > 10 µM (inactive); with TK-10, > 10 µM (inactive); with LOX IMVI, > 10 µM (inactive). For the same molecule, the GI50 in the experiment on OVCAR-3, with CCRF-CEM, in the experiment with NCI-H460, in the experiment on 786-0, in the experiment on SNB-19 and in the experiment with PC-3 was > 10 µM (inactive) in each case.
Consider `COC(=O)CCSC1=CC(=O)c2nc3ccccc3c3ccnc1c23`, for which the GI50 was 19.7 µM (inactive) in the experiment on SN12C; 18 µM (inactive) in the experiment with HT-29; 5.32 µM (inactive) in the experiment on SR; 15.7 µM (inactive) in the experiment with SF-539; 58.7 µM (inactive) in the experiment with SF-295; 8.09 µM (inactive) in the experiment on UACC-62. For the same molecule, the GI50 in the experiment with HCT-15 is 13.6 µM; in the experiment on KM12 it was 16.2 µM (inactive); in the experiment with BT-549 it was 17.7 µM (inactive); in the experiment on SK-MEL-5, 18.8 µM (inactive); with TK-10, 14.2 µM (inactive); in the experiment with OVCAR-3 it was 2.68 µM (inactive). Besides, the GI50 is 4.49 µM (inactive) in the experiment on CCRF-CEM; 16.1 µM (inactive) in the experiment with NCI-H460; 47.1 µM (inactive) in the experiment on NCI-H226; 19.9 µM (inactive) in the experiment on 786-0; > 100 µM (inactive) in the experiment with SNB-19; 15.4 µM (inactive) in the experiment with PC-3.
As for `O=c1c(Cc2ccc(Cl)cc2)nnc2sc(-c3ccc([N+](=O)[O-])cc3)nn12`, the GI50 is 33.5 µM (inactive) with SN12C; 30.1 µM (inactive) in the experiment on HT-29; 22.1 µM (inactive) with SR; 45.2 µM (inactive) in the experiment on SF-295; 14.2 µM (inactive) with UACC-62; 14.6 µM in the experiment with HCT-15. The GI50 with KM12 is 26.4 µM (inactive); in the experiment on BT-549, 19.8 µM (inactive); in the experiment on TK-10, 25.8 µM (inactive); with LOX IMVI, 29.2 µM (inactive); with CCRF-CEM it was 23.2 µM (inactive); in the experiment on NCI-H460 it was 16.1 µM (inactive). For the same molecule, the GI50 with 786-0 was 33.3 µM (inactive); with SNB-19, > 100 µM (inactive); with PC-3, 20.7 µM (inactive).
Regarding `CC(C)Oc1c(C2(c3ccccc3O)SCCCS2)c(=O)c1=O`, the GI50 is > 100 µM (inactive) in the experiment on SN12C; > 100 µM (inactive) in the experiment on HT-29; > 100 µM (inactive) in the experiment with SF-539; > 100 µM (inactive) in the experiment with SF-295; 98.6 µM (inactive) in the experiment on UACC-62; above 100 µM in the experiment on HCT-15. Moreover, the GI50 in the experiment on KM12 was 51.5 µM (inactive); with BT-549, 42.5 µM (inactive); in the experiment on SK-MEL-5 it was > 100 µM (inactive); with TK-10, > 100 µM (inactive); with LOX IMVI, > 100 µM (inactive); with OVCAR-3 it was 79.3 µM (inactive). Besides, the GI50 in the experiment with CCRF-CEM is 20.5 µM (inactive); in the experiment with NCI-H460, > 100 µM (inactive); with NCI-H226, 63.5 µM (inactive); with 786-0 it was > 100 µM (inactive); with SNB-19, 73.3 µM (inactive); in the experiment with PC-3, > 100 µM (inactive).
As to `Cn1c(-c2cccs2)cc(-c2ccsc2)c1-c1ccsc1`, the GI50 with SN12C is > 100 µM (inactive); in the experiment on HT-29, 93.5 µM (inactive); in the experiment on SR, > 100 µM (inactive); with SF-539, > 100 µM (inactive); in the experiment on SF-295, > 100 µM (inactive); with UACC-62, > 100 µM (inactive). Also, the GI50 in the experiment with HCT-15 is above 100 µM; in the experiment on KM12 it was > 100 µM (inactive); with BT-549 it was > 100 µM (inactive); in the experiment with SK-MEL-5, 36.1 µM (inactive); in the experiment with TK-10, > 100 µM (inactive); with OVCAR-3, > 100 µM (inactive). Further, the GI50 in the experiment on CCRF-CEM, in the experiment on NCI-H460, in the experiment with NCI-H226, with 786-0, in the experiment on SNB-19 and in the experiment on PC-3 was > 100 µM (inactive) in each case.
Take `Cc1ccc(-c2n[nH]c(=O)n2/N=C\c2ccccc2O)cc1`: the GI50 is > 100 µM (inactive) in the experiment with SN12C; > 100 µM (inactive) with HT-29; > 100 µM (inactive) with SR; > 100 µM (inactive) in the experiment with SF-539; > 100 µM (inactive) in the experiment on SF-295; above 100 µM with HCT-15. Also, the GI50 with KM12, in the experiment on BT-549, in the experiment on SK-MEL-5, in the experiment on TK-10, with OVCAR-3 and with CCRF-CEM was > 100 µM (inactive) throughout. Also, the GI50 in the experiment with NCI-H460, in the experiment on NCI-H226, in the experiment with 786-0, in the experiment with SNB-19 and with PC-3 was > 100 µM (inactive) each time.
For `CC1(C)S[C@@H]2[C@H](NC(=O)[C@H](N)c3ccccc3)C(=O)N2[C@H]1C(=O)O` [AMPICILLIN], the GI50 in the experiment with SN12C, in the experiment on HT-29, in the experiment with SR, in the experiment on SF-539, in the experiment with SF-295 and with UACC-62 was > 100 µM (inactive) throughout. The GI50 in the experiment with HCT-15 is above 100 µM; with KM12 it was > 100 µM (inactive); in the experiment on BT-549 it was > 100 µM (inactive); in the experiment on SK-MEL-5 it was > 100 µM (inactive); in the experiment on TK-10 it was > 100 µM (inactive); with LOX IMVI, > 100 µM (inactive). Besides, the GI50 in the experiment with OVCAR-3, in the experiment with CCRF-CEM, in the experiment with NCI-H460, in the experiment on 786-0, in the experiment with SNB-19 and with PC-3 was > 100 µM (inactive) in each case.
As to `COC(=O)[C@H]1CO[C@H]2C/C(C)=C/CC/C(C)=C/CC[C@@]3(C)O[C@@H]3C[C@H]21`, the GI50 with SN12C was 10.8 µM (inactive); in the experiment on HT-29, 17.9 µM (inactive); with SR it was 10.6 µM (inactive); in the experiment with SF-539, 15.6 µM (inactive); in the experiment on SF-295 it was 17.9 µM (inactive); in the experiment on UACC-62, 8.87 µM (inactive). For the same molecule, the GI50 in the experiment with HCT-15 was 9.12 µM; in the experiment on KM12, 9.57 µM (inactive); in the experiment on BT-549 it was 7.8 µM (inactive); with SK-MEL-5, 8.2 µM (inactive); in the experiment with TK-10, 20 µM (inactive); in the experiment on OVCAR-3, 10.1 µM (inactive). For the same molecule, the GI50 with CCRF-CEM is 10 µM (inactive); with NCI-H460, 9.73 µM (inactive); with NCI-H226, 12 µM (inactive); with 786-0, 16.3 µM (inactive); in the experiment with SNB-19, > 50 µM (inactive); with PC-3, 15.3 µM (inactive).
Consider `CC(C)c1cc(C(F)(F)F)nc(NNc2nc(C(C)C)cc(C(F)(F)F)n2)n1`, for which the GI50 with SN12C was > 100 µM (inactive); in the experiment with HT-29, > 100 µM (inactive); with SR it was > 100 µM (inactive); in the experiment on SF-539 it was 90.8 µM (inactive); with SF-295 it was 37.1 µM (inactive); in the experiment with UACC-62, 80 µM (inactive). Besides, the GI50 is above 100 µM with HCT-15; > 100 µM (inactive) in the experiment with KM12; > 100 µM (inactive) in the experiment on BT-549; > 100 µM (inactive) in the experiment with SK-MEL-5; 19.1 µM (inactive) in the experiment with TK-10; 17.1 µM (inactive) with OVCAR-3. In addition, the GI50 is > 100 µM (inactive) with CCRF-CEM; 62.8 µM (inactive) with NCI-H460; > 100 µM (inactive) in the experiment on NCI-H226; 28.4 µM (inactive) in the experiment on 786-0; 41.7 µM (inactive) with SNB-19; > 100 µM (inactive) with PC-3.
In the case of `COc1ccc(C2CC(c3c(O)ccc4ccccc34)=NN2C(C)=O)cc1OC` (configuration not stated), the GI50 in the experiment with SN12C is 26.5 µM (inactive); in the experiment with HT-29, 40 µM (inactive); with SR it was 14.2 µM (inactive); in the experiment on SF-539, 18.7 µM (inactive); in the experiment with SF-295, 37.4 µM (inactive); with UACC-62 it was 15.1 µM (inactive). The GI50 in the experiment with HCT-15 was 30.1 µM; in the experiment on KM12 it was 34.2 µM (inactive); in the experiment on BT-549 it was 17 µM (inactive); in the experiment on SK-MEL-5 it was 21.9 µM (inactive); in the experiment with TK-10, 53.3 µM (inactive); in the experiment with OVCAR-3 it was 23.2 µM (inactive). For the same molecule, the GI50 in the experiment with CCRF-CEM was 12.6 µM (inactive); in the experiment on NCI-H460, 28.1 µM (inactive); with NCI-H226, 36.2 µM (inactive); in the experiment on 786-0, 33.3 µM (inactive); with PC-3, 23.6 µM (inactive).
Regarding `COc1ccc2c(c1O)C13CCN(C)C(C2)C1CCC1(C3)OCCO1` (configuration not stated), the GI50 in the experiment with SN12C was > 100 µM (inactive); in the experiment on HT-29, > 100 µM (inactive); in the experiment with SR it was > 100 µM (inactive); in the experiment on SF-295, > 100 µM (inactive); with UACC-62, > 100 µM (inactive); in the experiment on HCT-15, above 100 µM. Besides, the GI50 in the experiment on KM12, in the experiment on BT-549, with SK-MEL-5, in the experiment on TK-10, with LOX IMVI and in the experiment with OVCAR-3 was > 100 µM (inactive) in each case. In addition, the GI50 in the experiment on NCI-H460, in the experiment on NCI-H226, in the experiment with 786-0, in the experiment on SNB-19 and in the experiment with PC-3 was > 100 µM (inactive) in each case.
